Assay results taken from patent publication US20200308170A1, “KRAS G12C INHIBITORS” (Mirati Therapeutics, Inc., priority 2017, published 2020).

Target: T1, KRas G12C (Homo sapiens, UniProt P01116, C118S/C51S/C80L/G12C)
T1 construct: GDP-loaded K-Ras (1-169) G12C, C51S, C80L, C118S
Test: KRas G12C Modification Assay (LCMS detection of covalent adduct)
Format: binding
Conditions: 5 μM concentration for 3 hours; LC/MS of intact protein; higher POC = higher degree of modification
Method: A 10 μL aliquot of each protein solution was then transferred to a 384 well microtiter plate. Initial compound stocks were generated at fifty times their desired final assay concentration in DMSO.
Exemplary compounds of Formula (II) were diluted 25-fold into K-Ras Assay Buffer to a final of two times their final concentration. A 10 μL aliquot of each diluted compound solution was then added to each of the protein solutions in the microtiter plate to initiate reaction. […] At each time point, the reactions were quenched with 20 μL of a 25 mM acetic acid solution. […] Once all reactions were quenched, the plates were heat sealed and the samples were injected into a LC/MS system for data acquisition.
Samples were injected in their liquid phase onto a C-3 reverse phase column to remove assay buffer and prepare the samples for mass spectrometer. The proteins were eluted from the column using an acetonitrile gradient and fed directly into the mass analyzer. Initial raw data analysis took place in Agilent MassHunter software immediately post data acquisition.
Raw data analysis of the intact protein was exclusively a deconvolution of the multiple charge states of each protein in solution using a maximum entropy deconvolution provided in Mass Hunter. To minimize complexity, only the data over limited mass ranges were considered for analysis, with a minimum of one Dalton mass step intervals. The heights of all masses identified during raw data analysis were exported to be further analyzed in Spotfire® data analysis software.
Final data analysis was a multistep process in the Spotfire® data analysis software package. Briefly, each protein mass was calculated as a percent of the total signal of that sample, that percentage was then normalized to the percentage of signal of the protein in the absence of reactive compounds. Those normalized signals were reported as normalized percent of control (POC). […] Key: “A”≤25% POC; “B”>25% POC−≤50% POC; “C”>50% POC and ND=not determined.

| Compound | POC (normalized percent of control; degree of covalent modification of KRas G12C) |
| --- | --- |
| Cc1cccc2cccc(N3CCc4c(nc(OC[C@@H]5CCCN5C)nc4N4CCN(C(=O)/C=C/c5cnn(C)c5)[C@@H](CC#N)C4)C3)c12 [Example 23, 2-((S)-1-((E)-3-(1-methyl-1H-pyrazol-4-yl)acryloyl)-4-(7-(8-methylnaphthalen-1-yl)-2-(((S)-1-methylpyrrolidin-2-yl)methoxy)-5,6,7,8-tetrahydropyrido[3,4-d]pyrimidin-4-yl)piperazin-2-yl)acetonitrile] | C (“C”>50% POC) |
| CN1CCC[C@H]1COc1nc2c(c(N3CCN(C(=O)/C=C/CF)[C@@H](CC#N)C3)n1)CCN(c1cccc3cccc(Cl)c13)C2 [Example 8, 2-[(2S)-4-[7-(8-chloro-1-naphthyl)-2-[[(2S)-1-methylpyrrolidin-2-yl]methoxy]-6,8-dihydro-5H-pyrido[3,4-d]pyrimidin-4-yl]-1-[(E)-4-fluorobut-2-enoyl]piperazin-2-yl]acetonitrile] | C (“C”>50% POC) |
| COC/C=C/C(=O)N1CCN(c2nc(OC[C@@H]3CCCN3C)nc3c2CCN(c2cccc(C)c2C)C3)C[C@@H]1CC#N [Example 18, 2-((S)-4-(7-(2,3-dimethylphenyl)-2-(((S)-1-methylpyrrolidin-2-yl)methoxy)-5,6,7,8-tetrahydropyrido[3,4-d]pyrimidin-4-yl)-1-((E)-4-methoxybut-2-enoyl)piperazin-2-yl)acetonitrile] | C (“C”>50% POC) |
| [2H]C([2H])=C([2H])C(=O)N1CCN(c2nc(OC[C@@H]3CCCN3C)nc3c2CCN(c2cccc4ccccc24)C3)C[C@@H]1CC#N [Example 4, 2-[(2S)-4-[2-[[(2S)-1-methylpyrrolidin-2-yl]methoxy]-7-(1-naphthyl)-6,8-dihydro-5H-pyrido[3,4-d]pyrimidin-4-yl]-1-(2,3,3-trideuterioprop-2-enoyl)piperazin-2-yl]acetonitrile] | C (“C”>50% POC) |
| C=C(CO)C(=O)N1CCN(c2nc(OC[C@@H]3CCCN3C)nc3c2CCN(c2cccc(C)c2C)C3)C[C@@H]1CC#N [Example 17, 2-((S)-4-(7-(2,3-dimethylphenyl)-2-(((S)-1-methylpyrrolidin-2-yl)methoxy)-5,6,7,8-tetrahydropyrido[3,4-d]pyrimidin-4-yl)-1-(2-(hydroxymethyl)acryloyl)piperazin-2-yl)acetonitrile] | B (“B”>25% POC−≤50% POC) |
| CN(C/C=C/C(=O)N1CCN(c2nc(OC[C@@H]3CCCN3C)nc3c2CCN(c2cccc4cccc(Cl)c24)C3)C[C@@H]1CC#N)CC(F)(F)F [Example 11, 2-[(2S)-4-[7-(8-chloro-1-naphthyl)-2-[[(2S)-1-methylpyrrolidin-2-yl]methoxy]-6,8-dihydro-5H-pyrido[3,4-d]pyrimidin-4-yl]-1-[(E)-4-[methyl(2,2,2-trifluoroethyl)amino]but-2-enoyl]piperazin-2-yl]acetonitrile] | C (“C”>50% POC) |
| C=C(COC)C(=O)N1CCN(c2nc(OC[C@@H]3CCCN3C)nc3c2CCN(c2cccc4cccc(Cl)c24)C3)C[C@@H]1CC#N [Example 14, 2-[(2S)-4-[7-(8-chloro-1-naphthyl)-2-[[(2S)-1-methylpyrrolidin-2-yl]methoxy]-6,8-dihydro-5H-pyrido[3,4-d]pyrimidin-4-yl]-1-[2-(methoxymethyl)prop-2-enoyl]piperazin-2-yl]acetonitrile] | A (“A”≤25% POC) |
| CN1CCC[C@H]1COc1nc2c(c(N3CCN(C(=O)/C=C/CN4CC(F)C4)[C@@H](CC#N)C3)n1)CCN(c1cccc3cccc(Cl)c13)C2 [Example 10, 2-[(2S)-4-[7-(8-chloro-1-naphthyl)-2-[[(2S)-1-methylpyrrolidin-2-yl]methoxy]-6,8-dihydro-5H-pyrido[3,4-d]pyrimidin-4-yl]-1-[(E)-4-(3-fluoroazetidin-1-yl)but-2-enoyl]piperazin-2-yl]acetonitrile] | C (“C”>50% POC) |
| CN1CCC[C@H]1COc1nc2c(c(N3CCN(C(=O)/C=C/C(F)F)[C@@H](CC#N)C3)n1)CCN(c1cccc3cccc(Cl)c13)C2 [Example 13, 2-[(2S)-4-[7-(8-chloro-1-naphthyl)-2-[[(2S)-1-methylpyrrolidin-2-yl]methoxy]-6,8-dihydro-5H-pyrido[3,4-d]pyrimidin-4-yl]-1-[(E)-4,4-difluorobut-2-enoyl]piperazin-2-yl]acetonitrile] | C (“C”>50% POC) |

Next, values leading:

| POC (normalized percent of control; degree of covalent modification of KRas G12C) | Compound |
| --- | --- |
| C (“C”>50% POC) | Cc1cccc2cccc(N3CCc4c(nc(OC[C@@H]5CCCN5C)nc4N4CCN(C(=O)/C=C\C#N)[C@@H](CC#N)C4)C3)c12 [Example 31, (Z)-4-((S)-2-(cyanomethyl)-4-(7-(8-methylnaphthalen-1-yl)-2-(((S)-1-methylpyrrolidin-2-yl)methoxy)-5,6,7,8-tetrahydropyrido[3,4-d]pyrimidin-4-yl)piperazin-1-yl)-4-oxobut-2-enenitrile] |
| B (“B”>25% POC−≤50% POC) | C=C(NC(C)=O)C(=O)N1CCN(c2nc(OC[C@@H]3CCCN3C)nc3c2CCN(c2cccc4cccc(C)c24)C3)C[C@@H]1CC#N [Example 54, N-(3-((S)-2-(cyanomethyl)-4-(7-(8-methylnaphthalen-1-yl)-2-(((S)-1-methylpyrrolidin-2-yl)methoxy)-5,6,7,8-tetrahydropyrido[3,4-d]pyrimidin-4-yl)piperazin-1-yl)-3-oxoprop-1-en-2-yl)acetamide] |
| C (“C”>50% POC) | Cc1cccc2cccc(N3CCc4c(nc(OC[C@@H]5CCCN5C)nc4N4CCN(C(=O)/C=C/C#N)[C@@H](CC#N)C4)C3)c12 [Example 30, (E)-4-((S)-2-(cyanomethyl)-4-(7-(8-methylnaphthalen-1-yl)-2-(((S)-1-methylpyrrolidin-2-yl)methoxy)-5,6,7,8-tetrahydropyrido[3,4-d]pyrimidin-4-yl)piperazin-1-yl)-4-oxobut-2-enenitrile] |
| C (“C”>50% POC) | COC/C=C/C(=O)N1CCN(c2nc(OC[C@@H]3CCCN3C)nc3c2CCN(c2cccc4cccc(C)c24)C3)C[C@@H]1CC#N [Example 40, 2-((S)-1-((E)-4-methoxybut-2-enoyl)-4-(7-(8-methylnaphthalen-1-yl)-2-(((S)-1-methylpyrrolidin-2-yl)methoxy)-5,6,7,8-tetrahydropyrido[3,4-d]pyrimidin-4-yl)piperazin-2-yl)acetonitrile] |
| C (“C”>50% POC) | C=C(C(=O)N1CCN(c2nc(OC[C@@H]3CCCN3C)nc3c2CCN(c2cccc4cccc(Cl)c24)C3)C[C@@H]1CC#N)C(F)(F)F [Example 33, 2-[(2S)-4-[7-(8-chloro-1-naphthyl)-2-[[(2S)-1-methylpyrrolidin-2-yl]methoxy]-6,8-dihydro-5H-pyrido[3,4-d]pyrimidin-4-yl]-1-[2-(trifluoromethyl)prop-2-enoyl]piperazin-2-yl]acetonitrile] |
| C (“C”>50% POC) | Cc1cccc2cccc(N3CCc4c(nc(OC[C@@H]5CCCN5C)nc4N4CCN(C(=O)/C=C/Cn5cccn5)[C@@H](CC#N)C4)C3)c12 [Example 38, 2-((S)-1-((E)-4-(1H-pyrazol-1-yl)but-2-enoyl)-4-(7-(8-methylnaphthalen-1-yl)-2-(((S)-1-methylpyrrolidin-2-yl)methoxy)-5,6,7,8-tetrahydropyrido[3,4-d]pyrimidin-4-yl)piperazin-2-yl)acetonitrile] |
| C (“C”>50% POC) | Cc1cccc2cccc(N3CCc4c(nc(OC[C@@H]5CCCN5C)nc4N4CCN(C(=O)/C=C/C(N)=O)[C@@H](CC#N)C4)C3)c12 [Example 29, (E)-4-((S)-2-(cyanomethyl)-4-(7-(8-methylnaphthalen-1-yl)-2-(((S)-1-methylpyrrolidin-2-yl)methoxy)-5,6,7,8-tetrahydropyrido[3,4-d]pyrimidin-4-yl)piperazin-1-yl)-4-oxobut-2-enamide] |
| A (“A”≤25% POC) | C=C(OC)C(=O)N1CCN(c2nc(OC[C@@H]3CCCN3C)nc3c2CCN(c2cccc4cccc(Cl)c24)C3)C[C@@H]1CC#N [Example 43, 2-[(2S)-4-[7-(8-chloro-1-naphthyl)-2-[[(2S)-1-methylpyrrolidin-2-yl]methoxy]-6,8-dihydro-5H-pyrido[3,4-d]pyrimidin-4-yl]-1-(2-methoxyprop-2-enoyl)piperazin-2-yl]acetonitrile] |
| C (“C”>50% POC) | Cc1cccc2cccc(N3CCc4c(nc(OC[C@@H]5CCCN5C)nc4N4CCN(C(=O)C5=CC(=O)CC5)[C@@H](CC#N)C4)C3)c12 [Example 26, 2-((S)-4-(7-(8-methylnaphthalen-1-yl)-2-(((S)-1-methylpyrrolidin-2-yl)methoxy)-5,6,7,8-tetrahydropyrido[3,4-d]pyrimidin-4-yl)-1-(3-oxocyclopent-1-ene-1-carbonyl)piperazin-2-yl)acetonitrile] |
